Results: article PMC6151802, “A New Series of Cytotoxic Pyrazoline Derivatives as Potential Anticancer Agents that Induce Cell Cycle Arrest and Apoptosis” (Molecules : A Journal of Synthetic Chemistry and Natural …, 2017)

How the values were obtained:
[1] = test system: Hela human cervical carcinoma cell line; experiment: MTT antiproliferative assay, Hela; format: cell-based; settings: 48 h treatment
Description: (§1) The antiproliferative activity of 1b–12b against three human cancer cell lines (include HepG-2 human hepatoma cell line, Hela human cervical carcinoma cell line and A549 human lung adenocarcinoma cell line) and NIH/3T3 mouse embryonic fibroblast cells were evaluated by the MTT assay (Table 2). […] For Hela cells, the antiproliferative activity of some of the derivatives were similar to that of cis-DDP. […] We selected compound 1b and cis-DDP to generate growth-inhibitory curves (Figure 1) against HepG-2 cells and Hela cells.
(§2) A MTT assay was developed to monitor mammalian cell survival and proliferation in vitro [29]. HepG-2 cells, Hela and A549 cells from the China Center for Type Culture Collection (CCTCC, Wuhan, China) were cultivated in RPMI-1640 medium supplemented with 10% fetal bovine serum (ν/ν), 100 U/mL penicillin, and […] streptomycin. Cells (5 × 10^3 cell/well) at the log phase of their growth cycle were added to each well of a 96-well plate and incubated for 24 h at 37 °C in a humidified atmosphere of 5% CO2. Then, cells were treated with or without test compounds at different concentrations. After 48 h, 5 mg/mL MTT solution (20 μL per well) was added. Cells were incubated at 37 °C. After 4 h, the MTT solution was removed and DMSO was added to each well (150 μL). Eight to twelve minutes later, the optical density (OD) values were measured at room temperature at a wavelength of 595 nm on a FilterMax F3/F5 Microplate Reader (Molecular Devices, Sydney, Australia). In this experiment, 5 mg/mL of cisplatin was used as the positive control and 0.1% DMSO was used as the negative reference. Each assay was carried out at least three times.

[2] = test system: HepG-2 human hepatoma cell line; experiment: MTT antiproliferative assay, HepG-2; format: cell-based; settings: for IC50: MTT, 48 h treatment; for SI (selectivity index): SI = IC50, NIH/3T3/IC50, HepG-2
Description: as §1, §2

[3] = test system: NIH/3T3 mouse embryonic fibroblast cells; experiment: MTT cytotoxicity assay, NIH/3T3 normal cells; format: cell-based; settings: 48 h treatment, read-out: IC50 NIH/3T3 Cell Line
Description: as §1, §2

[4] = test system: A549 human lung adenocarcinoma cell line; experiment: MTT antiproliferative assay, A549; format: cell-based; settings: 48 h treatment
Description: as §1, §2

HepG-2 cells [5] = experiment: Flow cytometric analysis of cell cycle distribution (PI); format: cell-based, human; settings: 24 h, control 9.97%
Description: Cell cycle arrest is an important sign for inhibition of proliferation and the series of events that take place in a cell leading to its division and replication. […] Compound 1b was chosen for intensive mechanism study on HepG-2 cells because of its highest selectivity index (SI) value of 14.5. After the inhibitory effect of 1b on cell proliferation was observed, we next assessed the effect on the cell cycle distribution of HepG-2 cells by flow cytometry (Figure 3). […] This represented a remarkable difference from 9.97% in the control group (p < 0.05). These findings confirmed that compound 1b could influence HepG-2 cell cycle progression at low micromolar concentrations in a dose-dependent manner.
For flow cytometric analysis of the DNA content, HepG-2 cells (2.0 × 10^5 cells/well) in exponential growth were plated in 6-well plates and incubated for 24 h and then incubated with different concentrations (2.5, 5 and 10 μmol/L) of compound 1b at 37 °C for 24 h. After 24 h treatment, cells were collected, centrifuged, and fixed with ice-cold ethanol (70%) overnight 4 °C. The cells were washed twice with PBS and then treated with lysis buffer containing RNase A (Sigma, St. Louis, MO, USA), which was kept in a lukewarm bath at 37 °C, for 30 min, sequentially, and stained with PI and kept in the dark for 30 min [30]. Then, the samples were analyzed by a flow cytometer (FACSCalibur, BD Accuri^TM C6 BD Instruments Inc., New York, NY, USA). Each experiment was performed in triplicate. DNA histograms were analyzed using Mod Fit (version 3.2) for Windows (Verity Software House, New York, NY, USA).

HepG-2 cells [6] = experiment: Plate colony formation (clonogenic survival) assay; format: cell-based, human; settings: different concentrations of 1b
Description: To assess the antiproliferative effect of compound 1b (Figure 2), we analyzed clonogenicity of HepG-2 cells after the treatment with 1b for 48 h.
Additionally, we used plate colony formation assay to evaluate the colony formation ability of HepG-2 cells. The cells were seeded in the complete medium in 6-well plate at 600 cells per well. After attachment, cells were exposed to different concentrations of compound 1b. After 7 days, the cells were fixed with paraformaldehyde for 20 min and stained with 1% crystal violet solution for 30 min to observe colonies.

HepG-2 cells [7] = experiment: Cellular apoptosis by Annexin V-FITC/PI flow cytometry; format: cell-based, human; settings: 24 h; for total percentage of apoptotic cells (early and late, Q2 + Q3): vehicle 2.921%
Description: To examine the potency of the cancer cell apoptosis effect of 1b on HepG-2 cells, the number of apoptotic cells was monitored using flow cytometry. […] The total percentage of apoptotic cells (early and late, Q2 + Q3) was 2.921% when treated with vehicle alone.
HepG-2 cells (2.0 × 10^5 cells/well) were plated in a 6-well plate and allowed to adhere. After 24 h, the medium was replaced with fresh culture medium containing compound 1b at final concentrations of 2.5, 5, and 10 μmol/L at 37 °C. After 24 h, the cells were harvested and staining solution was added (containing 5 μL Annexin V-FITC and 5 μL PI). The cells were then incubated for 15 min at 20–25 °C in the dark. The samples were then detected in a FACScalibur BD Accuri^TM C6 flow cytometer. Analyses were performed by the software supplied with the instrument.

HepG-2 cells [8] = experiment: Western blot analysis of apoptosis-related proteins; format: cell-based, human; settings: 2.5, 5 and 10 μM, 24 h
Description: To explore the mechanisms underlying apoptosis of compound 1b in HepG-2 cells, the characteristics of apoptosis including p53, caspase 3 and PARP cleavage were examined. […] The features of apoptosis appeared to occur in a dose-dependent manner. Furthermore, we measured the effect of 1b on expression of anti-apoptotic protein Bcl-2 and pro-apoptotic protein Bax in HepG-2 cells.
HepG-2 cells (1.0 × 10^6 cells/well) were seeded in six-well plates. After treatment with compound 1b for 24 h, the preparation of total protein samples from the culture cells for immunoblotting was carried out as previously described. For gel electrophoresis (Novex® NuPAGE® SDS-PAG, Thermo, Waltham, MA, USA), 30–50 μg of protein was used per well. Then the proteins were separated by SDS-PAGE and electroblotted to nitrocellulose membrane. The membrane was incubated with the following indicated antibody: Bcl-2, Bax, caspase-3, p53, PARP and β-actin (Cell Signaling Technology, Beverly, MA, USA) for 12 h at 4 °C. The antibodies were used in […] 5% BSA-TBS-T. The blots were washed four times and then incubated with horseradish peroxidase-conjugated secondary antibody (Santa Cruz Biotechnology Laboratories. Santa Cruz, CA, USA) for 1.5 h at room temperature. β-Actin antibody was used for equal loading.

| Structure (SMILES) | IC50 [1] | IC50 [2] | SI (selectivity index) [2] | IC50 [3] | IC50 [4] | percentage of cells at the G2/M phase (HepG-2 cells [5]; 2.5 μmol/L) | percentage of cells at the G2/M phase (HepG-2 cells [5]; 5 μmol/L) | percentage of cells at the G2/M phase (HepG-2 cells [5]; 10 μmol/L) | clonogenicity / plate colony formation of HepG-2 cells (HepG-2 cells [6]) | fold percentage of apoptotic cells in comparison with the control group (HepG-2 cells [7]; 2.5 μmol/L) | total percentage of apoptotic cells (early and late, Q2 + Q3) (HepG-2 cells [7]; 2.5 μmol/L) | fold percentage of apoptotic cells in comparison with the control group (HepG-2 cells [7]; 5 μmol/L) | total percentage of apoptotic cells (early and late, Q2 + Q3) (HepG-2 cells [7]; 5 μmol/L) | fold percentage of apoptotic cells in comparison with the control group (HepG-2 cells [7]; 10 μmol/L) | total percentage of apoptotic cells (early and late, Q2 + Q3) (HepG-2 cells [7]; 10 μmol/L) | PARP cleavage (HepG-2 cells [8]) | expression of anti-apoptotic protein Bcl-2 (HepG-2 cells [8]) | expression of pro-apoptotic protein Bax (HepG-2 cells [8]) | level of cleaved caspase-3 (HepG-2 cells [8]) | level of p53 (HepG-2 cells [8]) |
| --- | --- | --- | --- | --- | --- | --- | --- | --- | --- | --- | --- | --- | --- | --- | --- | --- | --- | --- | --- | --- |
| CCOc1cc(C2CC(c3ccccc3O)=NN2C(N)=S)cc(Br)c1O (stereo not drawn) [9b, 3-(2-Hydroxyphenyl)-5-(3-ethyoxyl-4-hydroxy-5-bromothiophenyl)-4,5-dihydro-1H-pyrazole-1-carbothioamide] | 7.74 ± 1.63 µM | 32.2 ± 2.83 µM | >3.10 | > 100 µM | > 100 µM |  |  |  |  |  |  |  |  |  |  |  |  |  |  |  |
| COc1cc(C2CC(c3ccc(F)cc3)=NN2C(N)=S)cc(OC)c1OC (stereo not drawn) [1b] | 7.63 ± 1.35 µM | 6.78 ± 1.44 µM | >14.75 | > 100 µM | > 100 µM | 25.06% | 56.15% | 71.25% | significantly reduced cell viability in a dose-dependent fashion | 1.33 fold | 3.889% | 2.26 fold | 6.581% | 3.53 fold | 10.309% | PARP was cleaved into fragmentation of 89 kDa | decrease in expression | increase in expression | dramatically increased | dramatically increased |
| N.N.[Cl][Pt][Cl] [cis-DDP, cisplatin, reference compound] | 5.28 ± 0.66 µM | 7.57 ± 0.98 µM | 0.64 | 4.88 ± 1.93 µM | 29.5 ± 3.3 µM |  |  |  |  |  |  |  |  |  |  |  |  |  |  |  |
